Assays:
Format in all cases: in vivo, human
[1] = Clinical improvement of a patient with cerebrospinal folate deficiency (case report, Example 2); conditions: patient Example 2; after 5-methyltetrahydrofolate treatment (folinic acid 5 mg twice per day)
Protocol: After Example 2's diagnosis, Example 2 was placed on 5-methyltetrahydrofolate in the form of folinic acid (5 mg twice per day). Within approximately four months, Example 2's cerebrospinal folate levels rose from 32 L (preferred range 40-128) to approximately 88 (above the midpoint of the range). […] Thus, reduced folates are critical.

[2] = Cerebrospinal folate level in a patient with cerebrospinal folate deficiency (case report, Example 2); conditions: patient Example 2; folinic acid 5 mg twice per day; within approximately four months; rose from 32 L (preferred range 40-128)
Protocol: Example 1 was tested for cerebrospinal folate deficiency approximately four months after Example 2's testing. […] Studies have shown that the earlier the anemias associated with cerebrospinal folate deficiency are addressed, the better the adversely impacted individual can overcome more long-term effects of the associated folate deficiency.
After Example 2's diagnosis, Example 2 was placed on 5-methyltetrahydrofolate in the form of folinic acid (5 mg twice per day).

[3] = Hematological response (reticulocytes) in a hypothyroid neonate after vitamin B12 supplementation (case report, Example 1); conditions: patient Example 1 (neonate); additional nutritional supplement containing 2 mcg of vitamin B12
From the text: In another example: a patient (later referred to as Example 1, and also a twin of Example 2) suffered from clinical signs of cerebrospinal folate deficiency at birth. Example 1 received infant milk formula that contained vitamin B12. […] It is noted that the multivitamin nutritional supplement was Poly-Vi-Sol. Example 2 received a version of Poly-Vi-Sol that was fortified with iron, but that contained no vitamin B12. It is further noted that neither the version of Poly-Vi-Sol (without the iron fortification) nor the Poly-Vi-Sol (with iron fortification) contained any folate. Thus, the disclosed subject matter addresses the need for Poly-Vi-Sol, and other vitamin supplements that are given to neonates, infants and toddlers, to contain the methods and compositions described herein.
Both Example 1 and Example 2 were treated for iron deficiencies with iron supplements. Example 1 and Example 2 received different nutritional supplementation with respect to vitamin B 12. Although Example 2 did receive the same infant milk formula that Example 1 received, which infant milk formula contained vitamin B 12, Example 2 received less of the infant milk formula than Example 1, and Example 2 received in lieu of the infant milk formula more of the breast milk from the hypothyroid […]. […]

| Compound | physical, behavioral and social skills [1] | cerebrospinal folate levels [2] | hematological response: reticulocytes [3] |
| --- | --- | --- | --- |
| Nc1nc2c(c(=O)[nH]1)N(C=O)C(CNc1ccc(C(=O)N[C@@H](CCC(=O)O)C(=O)O)cc1)CN2 (stereo partly drawn) [folinic acid, 6(R,S)-5-formyltetrahydrofolate] | showed improvement in physical, behavioral and social skills | approximately 88 | – |
| vitamin B 12 | – | – | increase in reticulocytes, moving from below normal to normal |
